Experimental data taken from ChEMBL document CHEMBL3259604, “Synthesis and anti-BVDV activity of novel δ-sultones in vitro: implications for HCV therapies” (Bioorg Med Chem Lett, 2014).

Legend:
[1] = test system: Bovine viral diarrhea virus 1; experiment: Antiviral activity against BVDV AV-69 infected in MDBK cells assessed as cytopathic effect after 3 to 4 days by plaque reduction assay; type: functional, organism-based; details: Bovine viral diarrhea virus isolates and strains, AV-69, MDBK
[2] = Cytotoxicity against MDBK cells at 20 uM after 48 hrs by MTT assay; type: cell-based, Bos taurus; details: cattle
[3] = Cytotoxicity against MDBK cells after 48 hrs by MTT assay; type: cell-based, Bos taurus; details: cattle
[4] = test system: Bovine viral diarrhea virus 1; experiment: Ratio of ribavirin EC50 to compound EC50 for BVDV AV-69; type: functional

Compound	EC50 [1]	Activity [2]	CC50 at 48 h [3]	Ratio EC50 [4]
CC12COS(=O)(=O)CC1=C(c1ccc(C(F)(F)F)cc1)C(=O)O2 (stereo not drawn)	> 1200 nM	Non-toxic		
Cc1ccc(C2=C3CS(=O)(=O)OCC3(C)OC2=O)cc1 (stereo not drawn)	> 1200 nM	Non-toxic		
CC12COS(=O)(=O)CC1=C(c1ccc(Cl)cc1)C(=O)O2 (stereo not drawn)	500 nM	Non-toxic		
CC12COS(=O)(=O)CC1=C(c1ccccc1)C(=O)O2 (stereo not drawn)	500 nM		> 20 µM	
CC12COS(=O)(=O)CC1=C(c1ccccc1Br)C(=O)O2 (stereo not drawn)	120 nM		> 20 µM	10
CC12COS(=O)(=O)CC1=C(c1ccc(Br)cc1)C(=O)O2 (stereo not drawn)	1000 nM	Non-toxic		
COc1ccc(C2=C3CS(=O)(=O)OCC3(C)OC2=O)cc1 (stereo not drawn)	> 1200 nM			
CC12COS(=O)(=O)CC1=C(c1ccc(F)c(F)c1)C(=O)O2 (stereo not drawn)	> 1200 nM	Non-toxic		
CC12COS(=O)(=O)CC1=C(c1ccccc1F)C(=O)O2 (stereo not drawn)	500 nM		> 20 µM	
CC12COS(=O)(=O)CC1=C(c1cccc(F)c1)C(=O)O2 (stereo not drawn)	1000 nM		> 20 µM	
CC12COS(=O)(=O)CC1=C(c1ccc(F)cc1)C(=O)O2 (stereo not drawn)	> 1200 nM			
NC(=O)c1ncn([C@@H]2O[C@H](CO)[C@@H](O)[C@H]2O)n1 [RIBAVIRIN]	1300 nM		> 20 µM	
